In US5846936A, “Growth hormone releasing factor analogs” (Roche Vitamins Inc., priority 1995, dated 1998):
*1 amine or outer side, *2 acyl side, *3 side chain or, on linkers, in order; H or OH if unused. Where a SMILES comes first, the peptide text is derived from it. Where no end group is shown, it is not given here. [ ]: non-standard residue; d: D form. The star is where a group is joined. Desaminotyrosyl = O=C(CCc1ccc(O)cc1)*; βAsp = O=C(O)[C@H](CC(=O)[*:2])N[*:1]

Tests used:
rat pituitary cells = assay type: cell-based
Method: The biological activity of the novel peptides were compared with that of a synthetic standard of the natural sequence of GRF(1-44)-NH2 (SEQ ID NO: 1-NH2) which was isolated from a human pancreatic tumor of an individual suffering from acromegaly (Salk Institute standard hp-GRF-NH2 (NL-A-10)). The assay for biological activity, which is based on the ability to stimulate production of growth hormone in rat pituitary cells in tissue culture, was performed in the following manner. Pituitaries from 30-40 male Sprague-Dawley rats (175 g) were removed aseptically after decapitation. The anterior lobes were collected, washed 3 times in sterile Hepes buffer (0.025M)(pH 7.35) and dispersed at 37° C. in 20-30 ml Hepes buffer (pH 7.35) containing collagenase (4 mg per ml) and Dispase (Protease grande II, 2 mg per ml). After gentle 80 min. vortexing and trituration by Pasteur pipette, the dispersed cells were separated by centrifugation (150×g, 4 min.) and re-suspended in Hepes buffer containing neuraminidase (4 mg/ml), and […] ethylenediaminetetraacetic acid (EDTA) disodium salt pH 7.35, for 10 min. The cells were washed twice with plating medium and plated on multiwell-plates (1.5×10^5 cells per ml) using the following defined medium: F-12/DMEM/BGJ(6:3:1) (Gibco: 430-1700/430-1600/320-2591) with 2 g BSA/L., 2.38 g Hepes/L.,50 mg Gentamycin/L (Schering Co.). The medium in each well was supplemented either with the novel peptide or natural GRF(1-44)-NH2 (SEQ ID NO: 1-NH2) at concentrations ranging from 3.1 to 200 fmol. per ml. of medium. Control wells contained no supplement. Plating was done with this medium added with 2% fetal calf serum to ensure rapid fixation of the cells. On the fourth day the cells were washed twice with the defined medium without fetal calf serum. Finally […] of defined medium was added to each well plus […] of the same medium containing each individual treatment, in triplicate. After 3 hours of incubation the medium was collected and diluted as required to conduct radioimmunoassay (RIA) for rat growth hormone. RIAs were conducted using Sinha's anti-murine GH immune serum and procedures according to the National Pituitary Agency using protein A to precipitate antibody antigen complex.

crossbred swine = assay: In vivo GRF analog administration in swine, serum GH by RIA (GH AUC); settings: relative to GRF(1-29)-NH2
Method: In vivo GRF analog studies were performed in crossbred swine (approximately70 lbs; Hoffmann-La Roche Experimental Research Facility) housed in individual metabolism cages with food and water freely available. For each GRF analog examined, six pigs were arranged in a 6×6 latin square design, such that each pig received a different dose (0 [saline], 0.3, 1.0, 3.0, 6.0 or 10.0 μg/kg body weight) over a six day period. […] All swine were cannulated via the femoral artery under halothane/ketamine HCL/xylezine anesthesia for subsequent (2-3 days) blood sampling. GRF analog was administered by subcutaneous injection in porcine gelatin. Pretreatment (control) blood samples were taken every 30 min from 8:30-9:30 a.m. Treatment doses were administered beginning at 10:00 a.m. One hr post-dosing, animals were sampled at 10 min intervals; 2nd hr post-dosing, animals were sampled at 15 min intervals; 3rd hr post-dosing,animals were sampled at 30 min intervals. […]
GH levels in porcine sera were measured by homologous double-antibody RIA, employing porcine GH standard (lot# AFP-10859C) supplied by Dr. A. Parlow (Research and Education Institute, Torrance, Calif.) and baboon anti-pGH sera (B-58: Hoffmann-La Roche). […] GH area under the curve (GH AUC) for the treatment period (0-360 min) was determined by trapezoidal summation. […]

[1] = literature; cited from earlier work
[2] = products of Asn^8 deamidation of [Leu^27]-GRF(1-32)-NH2 at pH 7.4, literature; cited from earlier work

For `CC[C@H](C)[C@H](NC(=O)[C@H](C)NC(=O)[C@H](CC(=O)O)NC(=O)[C@@H](C)NC(=O)CCc1ccc(O)cc1)C(=O)N[C@@H](Cc1ccccc1)C(=O)N[C@H](C(=O)N[C@@H](CC(N)=O)C(=O)N[C@@H](CO)C(=O)N[C@@H](Cc1ccc(O)cc1)C(=O)N[C@@H](CCCNC(=N)N)C(=O)N[C@@H](CCCCN)C(=O)N[C@H](C(=O)N[C@@H](CC(C)C)C(=O)N[C@@H](C)C(=O)N[C@@H](CCC(N)=O)C(=O)N[C@@H](CC(C)C)C(=O)N[C@@H](CO)C(=O)N[C@@H](C)C(=O)N[C@@H](CCCNC(=N)N)C(=O)N[C@@H](CCCCN)C(=O)N[C@@H](CC(C)C)C(=O)N[C@@H](CC(C)C)C(=O)N[C@@H](CCC(N)=O)C(=O)N[C@@H](CC(=O)O)C(=O)N[C@H](C(=O)N[C@@H](CCSC)C(=O)N[C@@H](CO)C(=O)N[C@@H](CCCNC(=N)N)C(N)=O)[C@@H](C)CC)C(C)C)[C@@H](C)O` [SEQ ID NO: 34-NH2, reference compound] (Desaminotyrosyl-[dA]DAIFTNSYRKVLAQLSARKLLQDIMSR-NH2), the “Potency of GRF Analogs Relative to GRF(1-44)-NH2 (SEQ ID NO: 1-NH2)” value (rat pituitary cells) was 4.71 and the “Times more potent than GRF(1-29)-NH2 (SEQ ID NO: 3-NH2)” value (crossbred swine) was 10-15 times.

For GRF(1-29)-NH2, the “Intrinsic activity and potency in vitro” value [1] is given as “full intrinsic activity and potency”.

In the case of “[isoAsp^8, Leu^27 ]-GRF(1-32)-NH2 (YADAIFT[βAsp]SYRKVLGQLSARKLLQDILSRQQG-NH2; N-terminus assumed; SMILES CC[C@H](C)[C@H](NC(=O)[C@H](C)NC(=O)[C@H](CC(=O)O)NC(=O)[C@H](C)NC(=O)[C@@H](N)Cc1ccc(O)cc1)C(=O)N[C@@H](Cc1ccccc1)C(=O)N[C@H](C(=O)N[C@@H](CC(=O)N[C@@H](CO)C(=O)N[C@@H](Cc1ccc(O)cc1)C(=O)N[C@@H](CCCNC(=N)N)C(=O)N[C@@H](CCCCN)C(=O)N[C@H](C(=O)N[C@@H](CC(C)C)C(=O)NCC(=O)N[C@@H](CCC(N)=O)C(=O)N[C@@H](CC(C)C)C(=O)N[C@@H](CO)C(=O)N[C@@H](C)C(=O)N[C@@H](CCCNC(=N)N)C(=O)N[C@@H](CCCCN)C(=O)N[C@@H](CC(C)C)C(=O)N[C@@H](CC(C)C)C(=O)N[C@@H](CCC(N)=O)C(=O)N[C@@H](CC(=O)O)C(=O)N[C@H](C(=O)N[C@@H](CC(C)C)C(=O)N[C@@H](CO)C(=O)N[C@@H](CCCNC(=N)N)C(=O)N[C@@H](CCC(N)=O)C(=O)N[C@@H](CCC(N)=O)C(=O)NCC(N)=O)[C@@H](C)CC)C(C)C)C(=O)O)[C@@H](C)O) [deamidation product of [Leu^27]-GRF(1-32)-NH2]”, the Biological activities [2] is given as “substantially reduced biological activities”.

In the case of “[Asp^8, Leu^27 ]-GRF(1-32)-NH2 (YADAIFTDSYRKVLGQLSARKLLQDILSRQQG-NH2) [deamidation product of [Leu^27]-GRF(1-32)-NH2]”, the Biological activities [2] is given as “substantially reduced biological activities”.
